Earlier results as cited in paper PMC12333940, “A prometabolite strategy inhibits cardiometabolic disease in an ApoE^–/– murine model of atherosclerosis” (JCI Insight, 2025).

Parameters: method as in printed
Conditions: oral administration of exogenous butyrate; background statement, ref not given; cited from earlier work

For `CCCC(=O)O` [butyrate, Butyrate], the “absorption into circulation, plasma concentration” value is given as 3 to 4 mM.
